Experimental data: paper PMC11214487, “YZL-51N functions as a selective inhibitor of SIRT7 by NAD^+ competition to impede DNA damage repair” (iScience, 2024)

Experiments:
SIRT6 [1] = target: T1, SIRT6 (Homo sapiens, UniProt Q8N6T7); test: Protein thermal shift assay; assay type: binding; conditions: 10 μM
Procedure: (§1) The mixture containing SIRT1, SIRT6 or SIRT7 proteins, SYPRO Orange, compounds and buffer (100 mM Tris-HCl, 40 mM NaCl, 10 mM MgCl2, pH=7.4) were added into 0.2 mL PCR tubes for a total volume of 20 μL and placed in an ABI ViiA 7 Real-time PCR System. The temperature ranging from 35.0 to 75.0°C was increased at a rate of 0.5°C/s and the fluorescence intensity was monitored in the ROX channel.

SIRT7 [2] = target: T2, SIRT7 (Homo sapiens, UniProt Q9NRC8); test: Protein thermal shift assay; assay type: binding; conditions: 10 μM
T2 construct: His-tagged full length SIRT7 protein expression from BL21 bacterial cells; His; made in house; host or cells: E. coli BL21
T2 sequence (Q9NRC8 1-400): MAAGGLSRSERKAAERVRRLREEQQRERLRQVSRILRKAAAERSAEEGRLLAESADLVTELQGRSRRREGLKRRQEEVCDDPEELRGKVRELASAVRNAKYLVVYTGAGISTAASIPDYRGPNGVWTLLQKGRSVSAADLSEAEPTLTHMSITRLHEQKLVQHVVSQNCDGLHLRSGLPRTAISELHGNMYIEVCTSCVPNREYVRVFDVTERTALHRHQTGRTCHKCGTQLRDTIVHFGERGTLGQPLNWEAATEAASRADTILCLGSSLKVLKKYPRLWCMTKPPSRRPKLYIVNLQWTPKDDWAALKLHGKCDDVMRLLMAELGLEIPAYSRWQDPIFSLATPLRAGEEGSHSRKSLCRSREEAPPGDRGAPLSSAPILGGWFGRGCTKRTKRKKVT
Procedure: as §1

SIRT6 [3] = target: T1, SIRT6; test: Cellular thermal shift assay in HCT116 cell lysates; assay type: binding; parameters: endogenous in cells; host or cells: HCT116; conditions: 20 μM
Procedure: (§2) Cellular thermal shift assays were performed according to previously reported methods with some modifications.[66] Briefly, HCT116 cells were lysed with RIPA buffer and incubated with 20 μM YZL-51N or DMSO for 1 h on ice. Subsequently, cell lysates were divided into 70 μL aliquots and heated individually at different temperatures for 4 min following by cooling on ice. The heated lysates were centrifuged, and 50 μL supernatants were taken for SDS-PAGE and immunoblotting analysis with the indicated antibodies.

SIRT7 [4] = target: T2, SIRT7; test: as above; assay type: binding; conditions: 20 μM
Procedure: as §2

SIRT1 = target: T3, SIRT1 (Homo sapiens, UniProt Q96EB6); test: as above; assay type: binding; conditions: 20 μM
T3 construct: endogenous in cells; host or cells: HCT116
T3 sequence (Q96EB6 1-747): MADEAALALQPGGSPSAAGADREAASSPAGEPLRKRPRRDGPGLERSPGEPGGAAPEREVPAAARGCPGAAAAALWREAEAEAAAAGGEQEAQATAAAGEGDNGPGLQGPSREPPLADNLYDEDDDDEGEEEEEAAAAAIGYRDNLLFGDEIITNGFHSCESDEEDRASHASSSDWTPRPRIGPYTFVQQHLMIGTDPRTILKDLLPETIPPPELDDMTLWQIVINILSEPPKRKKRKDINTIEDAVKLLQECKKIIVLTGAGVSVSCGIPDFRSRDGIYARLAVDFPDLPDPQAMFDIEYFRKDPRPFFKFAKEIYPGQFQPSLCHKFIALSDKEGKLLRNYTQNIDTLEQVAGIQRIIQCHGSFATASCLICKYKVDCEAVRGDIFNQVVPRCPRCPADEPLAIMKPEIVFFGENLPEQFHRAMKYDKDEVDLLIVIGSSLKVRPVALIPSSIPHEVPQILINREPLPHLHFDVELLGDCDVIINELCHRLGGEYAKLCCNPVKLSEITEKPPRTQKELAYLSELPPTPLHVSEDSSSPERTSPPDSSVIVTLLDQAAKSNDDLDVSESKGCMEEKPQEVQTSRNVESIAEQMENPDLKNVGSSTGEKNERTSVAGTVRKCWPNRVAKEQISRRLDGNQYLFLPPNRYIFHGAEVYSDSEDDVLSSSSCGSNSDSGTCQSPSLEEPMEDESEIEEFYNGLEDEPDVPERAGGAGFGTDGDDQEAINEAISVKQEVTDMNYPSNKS
Procedure: as §2

SIRT1/2/3/5/6 = test: Sirtuin deacetylation assay (fluorometric ELISA kit), other sirtuins; assay type: biochemical, human; conditions: different concentrations
Description: To determine the selectivity of YZL-51N, we assessed its inhibitory activity against recombinant human sirtuins expressed in E. coli through deacetylation assays in vitro (Figures 2A and 2B). […] We next validated the direct interaction between YZL-51N and SIRT1/2/6/7 using bio-layer interferometry (BLI) assays to compare their binding affinities. […] To gain insights into the ability of YZL-51N to affect sirtuin thermostability, we conducted protein thermal shift assays. At a concentration of 10 μM, YZL-51N caused shifts in the melting curves for SIRT7, SIRT6 and SIRT1 of 2.86°C, 1.0°C and 0.45°C (Figures S7A–S7C). In addition, we observed a dose-dependent increase in the ΔTm for SIRT7 following YZL-51N treatment (Figures 2F and 2G). Taken together, these findings confirm that YZL-51N is a selective inhibitor of SIRT7.
Deacetylase activity of 10 μg purified SIRT proteins was assessed using the Sirtuin Activity Assay Kit (BioVision, Cat#K324-100, USA) according to the manufacturer’s instructions. The fluorescence intensity (Ex/Em = 400/505 nm) was measured using a microplate reader (Synergy H4 Hybrid Reader, Biotek) in the end-point mode.

SIRT7 [5] = target: T2, SIRT7; test: Dot blot assay of SIRT7-mediated H3K18ac peptide deacetylation; assay type: biochemical
Description: To avoid the bias of the fluorescence assay, we also performed dot blot assays for the effects of natural compounds on SIRT7-mediated deacetylation of H3K18ac peptides in vitro (Figures S2A and S2B). In this system, SIRT7 mediated a dose-dependent deacetylation of H3K18ac (Figure 1D). […] Based on comparisons of all the candidates, we selected YZL-51N as the best for further investigation (Figure 1F). […] Thus, P. americana derived YZL-51N was confirmed as an identified SIRT7 inhibitor using parallel peptide-based screening platforms.
For dot blot assays, the reaction system containing 10 μg His-SIRT7, 0.5 mM NAD^+, 10 μM biotin-H3K18ac peptides and 50 μM potential compound was mixed and incubated at 37°C for 90 min. Samples were transferred to a polyvinylidene difluoride (PVDF) membrane, and then blocked with 5% skimmed milk. The blots were probed with H3K18ac primary antibody at RT for 2 h and then incubated with secondary antibody at RT for 1h. The bands were visualized using ECL substrates (Thermo Fisher, USA) on Tanon 5200SF Imaging System.

T1 sequence (Q8N6T7 whole entry): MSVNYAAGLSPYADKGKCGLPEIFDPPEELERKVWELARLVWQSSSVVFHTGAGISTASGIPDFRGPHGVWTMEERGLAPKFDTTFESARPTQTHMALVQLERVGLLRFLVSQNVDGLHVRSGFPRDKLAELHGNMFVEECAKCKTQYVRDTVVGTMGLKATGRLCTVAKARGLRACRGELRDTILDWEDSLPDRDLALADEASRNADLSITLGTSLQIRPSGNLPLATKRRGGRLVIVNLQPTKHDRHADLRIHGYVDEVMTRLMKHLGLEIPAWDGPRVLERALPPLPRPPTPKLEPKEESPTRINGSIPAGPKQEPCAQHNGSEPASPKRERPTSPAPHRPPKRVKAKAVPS

Shift in the melting curve (SIRT6 [1]): 1.0 °C | Shift in the melting curve (SIRT7 [2]): 2.86 °C | Effect on the melting curve (SIRT6 [3]): no obvious effect | Shift in the melting curve (SIRT7 [4]): 5.2 °C | Effect on the melting curve (SIRT1): no obvious effect | Inhibition of deacetylase activities of other sirtuins (SIRT1/2/3/5/6): did not inhibit | Rescue of H3K18 acetylation (SIRT7 [5]; dot blot screening, 50 μM): rescued H3K18 acetylation | EC50 (SIRT7 [5]; read-out: Dot blot assay H3K18ac rescue EC50): 13.5 µM
Compound: COC(=O)/C(=C\C(=O)c1ccc(O)c(O)c1)c1ccc(O)c(O)c1 [YZL-51N]
